Data reported in patent US9593305B2, “Differentiation of pluripotent stem cells” (Janssen Biotech, Inc., priority 2008, dated 2017).

Assays:
[1] = tested on: H1 human embryonic stem cells; test: Analog screening with GDF-8 and growth factor/agonist pool (Example 8, Tables 7 and 8); format: cell-based
Outline: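 H1 hESC clusters, washed free of growth factors, fed on alternate days over 4 days with DMEM:F12, 0.5% FCS, 2.5 μM compound, 25 ng/ml GDF-8 plus a 50 ng/ml growth-factor pool. Fixed cells immunostained for SOX17 and imaged; total SOX17 intensity normalised to positive control.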

[2] = tested on: H1 human embryonic stem cells; test: Analogue screening in combination with only GDF-8, SOX17 (Example 21, Tables 18 and 19); format: cell-based; set-up: Sox17 Expression: % of positive control / Cell Number: % of positive control: tested at 2.5 µM; conditions: compound in combination with GDF8; for Cell Number: Average Total Cell Number / Sox17 Expression: Average Total Intensity: four assay plates; for Cell Number: % of positive control / Sox17 Expression: % of positive control: relative to Activin A/Wnt3a of the same plate;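 as to all read-outs here: cells treated with 200 ng/ml GDF-8 in DMEM:F12 with FCS over four days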
Outline: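 H1 human ES cells treated four days with 200 ng/ml GDF-8 plus 2.5 μM compound (day 1, 0.5% FCS), GDF-8 alone in 2% FCS on day 3; triplicates. Fixed cells immunostained for SOX17 with Hoechst counterstain, imaged at 15 fields/well; total SOX17 intensity normalized to activin A/Wnt3a positive control.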

[3] = Plate 1, compound + EGF, FGF, PDGF-A, VEGF, PDGF-D, muscimol, GDF8
[4] = Plate 1, compound + EGF, FGF, PDGF-A, VEGF, PDGF-D, muscimol, GDF8, positive control Activin A/Wnt3a
[5] = Table 8: hits with greater than 25% activity of the positive control, with GDF-8 and growth factors/agonists
[6] = Plate 2, compound + EGF, FGF, PDGF-A, VEGF, PDGF-D, muscimol, GDF8
[7] = Plate 2, compound + EGF, FGF, PDGF-A, VEGF, PDGF-D, muscimol, GDF8, positive control Activin A/Wnt3a

Row | Compound | Cell Number, Average Total Cell Number [1, 3] | Sox17 Expression, Average Total Intensity [1, 3] | Cell Number, % of positive control [1, 4] | Sox17 Expression, % of positive control [1, 4] | Cell Number, % of positive control [1, 5] | Sox17 Expression, % of positive control [1, 5] | Sox17 Expression, Average Total Intensity [1, 5] | Cell Number: Average Total Cell Number [2] | Sox17 Expression: Average Total Intensity [2] | Cell Number: % of positive control [2] [%] | Sox17 Expression: % of positive control [2] [%] | Cell Number, Average Total Cell Number [1, 6] | Sox17 Expression, Average Total Intensity [1, 6] | Cell Number, % of positive control [1, 7] | Sox17 Expression, % of positive control [1, 7]
1 | CCN1CCCc2cccc(c2)-c2ncnc(n2)Nc2ccccc2CNC(=O)C1 [Compound 32, 15-Ethyl-13,14,15,16,18,19-hexahydro-1H-6,2-(azeno)-7,11-(metheno)-1,3,5,15,18-benzopentaazacyclohenicosin-17(12H)-one] | 8066 | 9.29E+07 | 60.2 % of positive control | 37.1 % of positive control | 60.2 % of positive control | 37.1 % of positive control | 9.29E+07 | 4338 | 3.63E+07 | 28.9 | 10.5 |  |  |  | 
2 | CN1CCCC(=O)NCCc2cccc(c2)Nc2ncnc(n2)-c2cccc(c2)CCC1 [Compound 33, 20-Methyl-3,5,7,15,20,30-hexaazatetracyclo[22.3.1.1˜2,6˜0.1˜8,12˜]triaconta-1(28), 2(30), 3,5,8(29), 9,11,24,26-nonaen-16-one] |  |  |  |  | 47.4 % of positive control | 28.3 % of positive control | 8.10E+07 | 2362 | 6.60E+06 | 15.4 | 2.0 | 7485 | 8.10E+07 | 47.4 % of positive control | 28.3 % of positive control
